Reference: the kinase profiling compilation of Christmann-Franck et al. (2016)

What was measured:
Experiment in all cases: KINOMEscan competition binding
Conditions in all cases: compound 10.0 µM
AXL (human) = AXL (human) (UniProt P30530)
CAMK1G (human) = CAMK1G (human) (UniProt Q96NX5)
CAMK2D (human) = CAMK2D (human) (UniProt Q13557)
CDK5 (human) = CDK5 (human) (UniProt Q00535)
CHUK (human) = CHUK (human) (UniProt O15111)
CSF1R (human) = CSF1R (human) (UniProt P07333)
CSNK2A1 (human) = CSNK2A1 (human) (UniProt P68400)
DCLK3 (human) = DCLK3 (human) (UniProt Q9C098)
DMPK (human) = DMPK (human) (UniProt Q09013)
EPHA1 (human) = EPHA1 (human) (UniProt P21709)
FGFR1 (human) = FGFR1 (human) (UniProt P11362)
FLT1 (human) = FLT1 (human) (UniProt P17948)
GSK3B (human) = GSK3B (human) (UniProt P49841)
INSRR (human) = INSRR (human) (UniProt P14616)
ITK (human) = ITK (human) (UniProt Q08881)
LYN (human) = LYN (human) (UniProt P07948)
MAP2K1 (human) = MAP2K1 (human) (UniProt Q02750)
MAP2K2 (human) = MAP2K2 (human) (UniProt P36507)
MAP3K12 (human) = MAP3K12 (human) (UniProt Q12852)
MAPK12 (human) = MAPK12 (human) (UniProt P53778)
MAPKAPK2 (human) = MAPKAPK2 (human) (UniProt P49137)
MARK4 (human) = MARK4 (human) (UniProt Q96L34)
NEK5 (human) = NEK5 (human) (UniProt Q6P3R8)
NTRK2 (human) = NTRK2 (human) (UniProt Q16620)
PKN1 (human) = PKN1 (human) (UniProt Q16512)
PKN2 (human) = PKN2 (human) (UniProt Q16513)
PLK4 (human) = PLK4 (human) (UniProt O00444)
PRKCH (human) = PRKCH (human) (UniProt P24723)
RIPK1 (human) = RIPK1 (human) (UniProt Q13546)
ROCK2 (human) = ROCK2 (human) (UniProt O75116)
RPS6KA4 KD2 (human) = RPS6KA4 KD2 (human) (UniProt O75676)
RPS6KA6 KD1 (human) = RPS6KA6 KD1 (human) (UniProt Q9UK32)
SLK (human) = SLK (human) (UniProt Q9H2G2)
SRMS (human) = SRMS (human) (UniProt Q9H3Y6)
SYK (human) = SYK (human) (UniProt P43405)
TSSK1B (human) = TSSK1B (human) (UniProt Q9BXA7)
TTK (human) = TTK (human) (UniProt P33981)
ULK3 (human) = ULK3 (human) (UniProt Q6PHR2)
CHEK1 (human) = CHEK1 (human) (UniProt O14757)
SRPK3 (human) = SRPK3 (human) (UniProt Q9UPE1)

SRMS (human), sequence (Q9H3Y6 whole entry, looked up): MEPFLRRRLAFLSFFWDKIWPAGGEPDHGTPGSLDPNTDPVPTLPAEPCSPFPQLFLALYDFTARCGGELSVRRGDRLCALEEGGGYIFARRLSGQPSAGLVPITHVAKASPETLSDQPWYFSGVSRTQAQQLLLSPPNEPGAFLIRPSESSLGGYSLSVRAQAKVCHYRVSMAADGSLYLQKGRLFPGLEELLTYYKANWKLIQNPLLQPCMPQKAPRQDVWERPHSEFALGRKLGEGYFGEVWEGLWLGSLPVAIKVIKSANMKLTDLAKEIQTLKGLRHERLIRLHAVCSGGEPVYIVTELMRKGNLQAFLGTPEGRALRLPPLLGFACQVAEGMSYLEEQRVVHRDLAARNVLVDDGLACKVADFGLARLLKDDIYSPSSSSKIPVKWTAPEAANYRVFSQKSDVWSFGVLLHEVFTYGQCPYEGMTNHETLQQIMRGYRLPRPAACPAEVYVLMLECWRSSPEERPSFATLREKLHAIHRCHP
CAMK1G (human), sequence (Q96NX5 whole entry, looked up): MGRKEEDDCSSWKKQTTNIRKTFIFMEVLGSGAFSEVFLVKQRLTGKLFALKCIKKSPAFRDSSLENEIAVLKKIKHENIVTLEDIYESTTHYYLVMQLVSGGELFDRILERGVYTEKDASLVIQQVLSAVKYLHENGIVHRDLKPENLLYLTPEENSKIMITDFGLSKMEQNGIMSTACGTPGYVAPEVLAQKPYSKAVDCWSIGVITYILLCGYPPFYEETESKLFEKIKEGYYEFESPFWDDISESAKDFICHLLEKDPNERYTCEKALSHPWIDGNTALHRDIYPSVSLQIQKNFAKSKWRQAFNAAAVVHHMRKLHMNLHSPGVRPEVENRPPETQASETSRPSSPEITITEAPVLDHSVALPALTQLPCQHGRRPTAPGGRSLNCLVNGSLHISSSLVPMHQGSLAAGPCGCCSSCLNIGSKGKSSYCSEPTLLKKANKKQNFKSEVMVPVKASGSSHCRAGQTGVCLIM
TSSK1B (human), sequence (Q9BXA7 whole entry, looked up): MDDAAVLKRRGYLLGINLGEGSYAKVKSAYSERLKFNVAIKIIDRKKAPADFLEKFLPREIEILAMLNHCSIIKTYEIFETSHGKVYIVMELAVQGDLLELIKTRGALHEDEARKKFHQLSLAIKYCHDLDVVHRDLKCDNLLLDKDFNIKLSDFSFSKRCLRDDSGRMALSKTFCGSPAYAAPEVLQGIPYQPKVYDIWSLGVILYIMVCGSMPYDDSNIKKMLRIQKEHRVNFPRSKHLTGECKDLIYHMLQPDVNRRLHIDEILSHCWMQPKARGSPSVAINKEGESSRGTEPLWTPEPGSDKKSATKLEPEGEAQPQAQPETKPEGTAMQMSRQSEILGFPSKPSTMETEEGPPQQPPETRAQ
PKN2 (human), sequence (Q16513 whole entry, looked up): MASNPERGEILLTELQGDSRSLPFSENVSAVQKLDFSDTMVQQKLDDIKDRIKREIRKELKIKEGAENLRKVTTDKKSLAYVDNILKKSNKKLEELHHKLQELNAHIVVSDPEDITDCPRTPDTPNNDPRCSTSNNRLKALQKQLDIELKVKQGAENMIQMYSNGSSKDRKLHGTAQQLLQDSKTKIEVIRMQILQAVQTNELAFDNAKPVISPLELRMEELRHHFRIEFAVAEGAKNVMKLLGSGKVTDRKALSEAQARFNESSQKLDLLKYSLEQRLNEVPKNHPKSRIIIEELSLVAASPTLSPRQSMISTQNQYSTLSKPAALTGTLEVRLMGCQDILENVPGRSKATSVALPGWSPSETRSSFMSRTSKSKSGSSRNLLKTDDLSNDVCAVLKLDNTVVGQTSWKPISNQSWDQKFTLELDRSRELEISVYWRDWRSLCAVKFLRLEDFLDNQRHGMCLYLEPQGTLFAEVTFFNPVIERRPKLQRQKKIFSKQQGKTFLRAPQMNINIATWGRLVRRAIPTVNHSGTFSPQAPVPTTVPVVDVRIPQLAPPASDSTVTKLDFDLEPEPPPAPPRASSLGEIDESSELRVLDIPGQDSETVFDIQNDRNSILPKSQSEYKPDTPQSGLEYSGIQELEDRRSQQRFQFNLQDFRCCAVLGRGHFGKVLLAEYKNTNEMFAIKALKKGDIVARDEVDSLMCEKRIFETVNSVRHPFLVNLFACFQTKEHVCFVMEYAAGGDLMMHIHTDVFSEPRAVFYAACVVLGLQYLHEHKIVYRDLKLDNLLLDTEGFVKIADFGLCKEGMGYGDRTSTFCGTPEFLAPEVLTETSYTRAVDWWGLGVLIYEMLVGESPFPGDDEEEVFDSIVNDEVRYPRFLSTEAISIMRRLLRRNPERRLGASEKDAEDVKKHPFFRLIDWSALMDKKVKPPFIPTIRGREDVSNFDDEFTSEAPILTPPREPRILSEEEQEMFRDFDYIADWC
MAP3K12 (human), sequence (Q12852 whole entry, looked up): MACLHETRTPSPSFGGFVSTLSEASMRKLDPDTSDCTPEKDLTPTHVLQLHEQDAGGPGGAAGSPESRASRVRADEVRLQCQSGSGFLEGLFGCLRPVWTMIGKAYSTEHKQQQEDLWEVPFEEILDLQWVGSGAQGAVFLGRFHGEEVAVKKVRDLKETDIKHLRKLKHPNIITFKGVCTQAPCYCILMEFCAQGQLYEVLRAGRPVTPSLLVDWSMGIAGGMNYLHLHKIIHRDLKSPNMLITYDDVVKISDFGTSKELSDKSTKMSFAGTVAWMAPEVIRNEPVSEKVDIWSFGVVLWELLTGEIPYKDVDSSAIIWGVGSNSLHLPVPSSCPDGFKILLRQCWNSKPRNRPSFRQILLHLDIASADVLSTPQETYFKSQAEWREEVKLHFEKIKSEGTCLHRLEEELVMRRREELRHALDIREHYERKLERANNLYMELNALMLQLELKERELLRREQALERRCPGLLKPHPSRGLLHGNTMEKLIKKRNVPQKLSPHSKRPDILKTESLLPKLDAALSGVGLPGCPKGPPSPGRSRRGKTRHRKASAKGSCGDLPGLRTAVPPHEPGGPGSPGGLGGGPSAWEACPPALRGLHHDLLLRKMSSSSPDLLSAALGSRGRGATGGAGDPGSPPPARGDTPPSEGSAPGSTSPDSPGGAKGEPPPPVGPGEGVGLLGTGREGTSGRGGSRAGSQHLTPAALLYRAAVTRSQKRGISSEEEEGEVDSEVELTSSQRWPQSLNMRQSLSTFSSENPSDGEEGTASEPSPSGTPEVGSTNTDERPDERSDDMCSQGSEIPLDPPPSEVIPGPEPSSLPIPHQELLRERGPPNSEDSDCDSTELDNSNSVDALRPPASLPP
TTK (human), sequence (P33981 whole entry, looked up): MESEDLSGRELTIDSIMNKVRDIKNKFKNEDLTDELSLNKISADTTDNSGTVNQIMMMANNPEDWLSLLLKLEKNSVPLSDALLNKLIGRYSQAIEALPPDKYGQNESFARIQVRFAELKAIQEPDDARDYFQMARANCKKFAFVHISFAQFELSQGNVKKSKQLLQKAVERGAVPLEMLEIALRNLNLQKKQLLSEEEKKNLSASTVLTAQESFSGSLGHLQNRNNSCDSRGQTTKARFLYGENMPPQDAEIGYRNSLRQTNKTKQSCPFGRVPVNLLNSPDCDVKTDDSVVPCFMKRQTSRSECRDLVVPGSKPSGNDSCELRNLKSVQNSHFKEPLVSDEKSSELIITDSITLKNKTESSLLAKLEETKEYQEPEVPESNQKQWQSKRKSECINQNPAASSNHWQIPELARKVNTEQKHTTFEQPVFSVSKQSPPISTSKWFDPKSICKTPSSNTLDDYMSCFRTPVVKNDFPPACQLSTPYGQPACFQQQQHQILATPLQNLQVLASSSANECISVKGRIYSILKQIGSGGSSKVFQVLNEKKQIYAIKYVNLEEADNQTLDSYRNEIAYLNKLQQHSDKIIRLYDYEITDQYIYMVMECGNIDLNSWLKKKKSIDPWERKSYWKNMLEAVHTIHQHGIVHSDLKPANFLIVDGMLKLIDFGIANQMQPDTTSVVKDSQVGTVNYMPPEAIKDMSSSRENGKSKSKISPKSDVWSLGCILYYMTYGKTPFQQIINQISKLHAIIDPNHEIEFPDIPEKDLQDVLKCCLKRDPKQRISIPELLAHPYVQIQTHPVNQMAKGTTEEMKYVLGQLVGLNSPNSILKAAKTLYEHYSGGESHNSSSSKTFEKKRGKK
RIPK1 (human), sequence (Q13546 whole entry, looked up): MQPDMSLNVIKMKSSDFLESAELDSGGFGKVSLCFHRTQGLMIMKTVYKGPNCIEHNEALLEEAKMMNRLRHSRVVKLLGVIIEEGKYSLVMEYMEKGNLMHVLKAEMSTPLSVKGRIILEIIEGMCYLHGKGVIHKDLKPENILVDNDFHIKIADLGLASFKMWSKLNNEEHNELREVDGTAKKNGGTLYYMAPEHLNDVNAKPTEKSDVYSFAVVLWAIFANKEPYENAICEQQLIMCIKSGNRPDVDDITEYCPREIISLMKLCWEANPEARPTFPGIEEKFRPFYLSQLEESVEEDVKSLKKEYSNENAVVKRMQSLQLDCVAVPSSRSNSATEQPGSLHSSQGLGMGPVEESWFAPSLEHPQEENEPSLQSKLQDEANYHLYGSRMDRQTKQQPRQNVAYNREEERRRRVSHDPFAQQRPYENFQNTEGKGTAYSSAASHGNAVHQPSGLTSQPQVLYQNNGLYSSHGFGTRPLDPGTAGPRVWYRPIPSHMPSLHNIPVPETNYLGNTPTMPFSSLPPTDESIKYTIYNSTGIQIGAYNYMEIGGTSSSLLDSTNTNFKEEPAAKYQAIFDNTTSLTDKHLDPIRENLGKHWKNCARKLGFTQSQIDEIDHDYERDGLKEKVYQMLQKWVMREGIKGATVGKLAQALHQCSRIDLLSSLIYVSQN
CDK5 (human), sequence (Q00535 whole entry, looked up): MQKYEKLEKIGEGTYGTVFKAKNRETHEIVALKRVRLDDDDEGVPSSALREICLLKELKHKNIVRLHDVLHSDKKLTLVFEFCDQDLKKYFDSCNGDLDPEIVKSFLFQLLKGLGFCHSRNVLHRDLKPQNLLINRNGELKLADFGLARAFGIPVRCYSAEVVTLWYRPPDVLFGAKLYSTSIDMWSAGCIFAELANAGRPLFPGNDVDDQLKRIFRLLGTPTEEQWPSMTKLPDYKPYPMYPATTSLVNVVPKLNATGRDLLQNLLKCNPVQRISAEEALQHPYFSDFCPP

Structure (SMILES)	kinase still bound, per cent of control (AXL (human)) [%]	kinase still bound, per cent of control (CAMK1G (human)) [%]	kinase still bound, per cent of control (CAMK2D (human)) [%]	kinase still bound, per cent of control (CDK5 (human)) [%]	kinase still bound, per cent of control (CHUK (human)) [%]	kinase still bound, per cent of control (CSF1R (human)) [%]	kinase still bound, per cent of control (CSNK2A1 (human)) [%]	kinase still bound, per cent of control (DCLK3 (human)) [%]	kinase still bound, per cent of control (DMPK (human)) [%]	kinase still bound, per cent of control (EPHA1 (human)) [%]	kinase still bound, per cent of control (FGFR1 (human)) [%]	kinase still bound, per cent of control (FLT1 (human)) [%]	kinase still bound, per cent of control (INSRR (human)) [%]	kinase still bound, per cent of control (LYN (human)) [%]	kinase still bound, per cent of control (MAP2K1 (human)) [%]	kinase still bound, per cent of control (MAP2K2 (human)) [%]	kinase still bound, per cent of control (MAP3K12 (human)) [%]	kinase still bound, per cent of control (MAPK12 (human)) [%]	kinase still bound, per cent of control (MAPKAPK2 (human)) [%]	kinase still bound, per cent of control (MARK4 (human)) [%]	other results
CCC(=O)N1CCN(c2ccc(-n3c(=O)ccc4cnc5ccc(-c6cnc7ccccc7c6)cc5c43)cc2C(F)(F)F)CC1	46	74	72	100	41	24	94	97	77	62	96	79	100	79	100	100	100	71	100	100	kinase still bound, per cent of control (GSK3B (human)): 100%; kinase still bound, per cent of control (ITK (human)): 100%; kinase still bound, per cent of control (NEK5 (human)): 5.8%; kinase still bound, per cent of control (NTRK2 (human)): 81%; kinase still bound, per cent of control (PKN1 (human)): 92%; kinase still bound, per cent of control (PKN2 (human)): 65%; kinase still bound, per cent of control (PLK4 (human)): 100%; kinase still bound, per cent of control (PRKCH (human)): 92%; kinase still bound, per cent of control (RIPK1 (human)): 1.9%; kinase still bound, per cent of control (ROCK2 (human)): 50%; kinase still bound, per cent of control (RPS6KA4 KD2 (human)): 100%; kinase still bound, per cent of control (RPS6KA6 KD1 (human)): 66%; kinase still bound, per cent of control (SLK (human)): 94%; kinase still bound, per cent of control (SRMS (human)): 92%; kinase still bound, per cent of control (SYK (human)): 78%; kinase still bound, per cent of control (TSSK1B (human)): 100%; kinase still bound, per cent of control (TTK (human)): 9.6%; kinase still bound, per cent of control (ULK3 (human)): 100%
CCOc1cc2ncc(C#N)c(Nc3ccc(OCc4ccccn4)c(Cl)c3)c2cc1NC(=O)/C=C/CN(C)C	5.4	100	100	100	81	68	94	100	98	100	100	95	94	34	0.4	0.5	36	100	89	87	kinase still bound, per cent of control (CHEK1 (human)): 65%; kinase still bound, per cent of control (ITK (human)): 52%; kinase still bound, per cent of control (NEK5 (human)): 100%; kinase still bound, per cent of control (NTRK2 (human)): 95%; kinase still bound, per cent of control (PKN1 (human)): 100%; kinase still bound, per cent of control (PKN2 (human)): 72%; kinase still bound, per cent of control (PLK4 (human)): 82%; kinase still bound, per cent of control (PRKCH (human)): 100%; kinase still bound, per cent of control (RIPK1 (human)): 100%; kinase still bound, per cent of control (ROCK2 (human)): 86%; kinase still bound, per cent of control (RPS6KA4 KD2 (human)): 94%; kinase still bound, per cent of control (RPS6KA6 KD1 (human)): 86%; kinase still bound, per cent of control (SLK (human)): 1.4%; kinase still bound, per cent of control (SRMS (human)): 91%; kinase still bound, per cent of control (SRPK3 (human)): 77%; kinase still bound, per cent of control (SYK (human)): 65%; kinase still bound, per cent of control (TSSK1B (human)): 100%; kinase still bound, per cent of control (TTK (human)): 100%; kinase still bound, per cent of control (ULK3 (human)): 100%
O=C(O)c1ccc(Nc2ncc3c(n2)-c2ccc(Cl)cc2C(c2c(F)cccc2F)=NC3)cc1	4.4	79	95	100	100	38	29	92	79	15	14	12	100	25	86	99	100	97	100	100	kinase still bound, per cent of control (CHEK1 (human)): 91%; kinase still bound, per cent of control (NEK5 (human)): 46%; kinase still bound, per cent of control (NTRK2 (human)): 30%; kinase still bound, per cent of control (PKN1 (human)): 83%; kinase still bound, per cent of control (PKN2 (human)): 79%; kinase still bound, per cent of control (PLK4 (human)): 14%; kinase still bound, per cent of control (PRKCH (human)): 100%; kinase still bound, per cent of control (RIPK1 (human)): 100%; kinase still bound, per cent of control (ROCK2 (human)): 89%; kinase still bound, per cent of control (RPS6KA4 KD2 (human)): 100%; kinase still bound, per cent of control (RPS6KA6 KD1 (human)): 36%; kinase still bound, per cent of control (SLK (human)): 80%; kinase still bound, per cent of control (SRMS (human)): 54%; kinase still bound, per cent of control (SRPK3 (human)): 100%; kinase still bound, per cent of control (SYK (human)): 78%; kinase still bound, per cent of control (TSSK1B (human)): 90%; kinase still bound, per cent of control (TTK (human)): 63%; kinase still bound, per cent of control (ULK3 (human)): 57%
